Laboratory results as given in ChEMBL document CHEMBL4673317, “Linearolactone and Kaempferol Disrupt the Actin Cytoskeleton in Entamoeba histolytica: Inhibition of Amoebic Liver Abscess Development” (J Nat Prod, 2020).
The source made the active and inactive calls. No cut-off for these calls is given here.

Columns and labels:
Entamoeba histolytica [1] = test: Induction of apoptosis in Entamoeba histolytica […] trophozoites assessed as late apoptotic cells at IC50 concentration after 48 hrs by annexin-V-FITC/propidium iodide staining based flow cytometric analysis (reference value: 0.7%); assay type: functional, HM-1:IMSS
Entamoeba histolytica [2] = test: Antimicrobial activity against Entamoeba histolytica […] trophozoites assessed as decrease in size of cells at IC50 concentration after 48 hrs by uranyl acetate staining based TEM analysis; assay type: functional, organism-based; conditions: HM-1:IMSS
Entamoeba histolytica [3] = test: Antimicrobial activity against Entamoeba histolytica […] trophozoites infected in Syrian hamster assessed as total leukocytes at 0.05 mg/kg, ip at 4 days post infection and measured on day 8 (reference value: 18 +/- 16 […]/mm3); assay type: functional, HM-1:IMSS; conditions: time 4 day
Entamoeba histolytica [4] = test: Binding affinity to Entamoeba histolytica […] trophozoites actin assessed as induction of polarization of polymerized actin at IC50 concentration incubated for 1 hrs by […] staining based confocal microscopic analysis
Entamoeba histolytica [5] = test: Induction of apoptosis in Entamoeba histolytica […] trophozoites assessed as necrotic cells at IC50 concentration after 48 hrs by annexin-V-FITC/propidium iodide staining based flow cytometric analysis (reference value: 0.4%); assay type: functional, HM-1:IMSS
Entamoeba histolytica [6] = test: Antimicrobial activity against Entamoeba histolytica […] trophozoites infected in Syrian hamster assessed as creatinine level at 0.05 mg/kg, ip at 4 days post infection and measured on day 8 (reference value: 0.9 +/- 0.06 mg/dl); assay type: functional, HM-1:IMSS; conditions: time 4 day
Entamoeba histolytica [7] = test: Antimicrobial activity against Entamoeba histolytica […] trophozoites infected in Syrian hamster assessed as inhibition of amoebic liver abscess by measuring vascular congestion at 0.5 mg/kg, ip at 4 days post infection and measured on day 8 by H and E staining based microscopic method; assay type: functional, organism-based; conditions: HM-1:IMSS, time 4.0 day
BEAS-2B = test: Cytotoxicity against human BEAS-2B cells assessed as reduction in cell viability after 24 hrs by MTT assay; assay type: cell-based
Entamoeba histolytica [8] = test: Antimicrobial activity against Entamoeba histolytica […] trophozoites infected in Syrian hamster assessed as platelets at 0.05 mg/kg, ip at 4 days post infection and measured on day 8 (reference value: 439 +/- 108 […]); assay type: functional, HM-1:IMSS; conditions: time 4 day
Entamoeba histolytica [9] = test: Antimicrobial activity against Entamoeba histolytica […] trophozoites infected in Syrian hamster assessed as ALP level at 0.05 mg/kg, ip at 4 days post infection and measured on day 8 (reference value: 638 +/- 50 U/L); assay type: functional, HM-1:IMSS; conditions: time 4 day
Entamoeba histolytica [10] = test: Antimicrobial activity against Entamoeba histolytica […] trophozoites infected in Syrian hamster assessed as triglycerides level at 0.05 mg/kg, ip at 4 days post infection and measured on day 8 (reference value: 395 +/- 41 mg/dl); assay type: functional, HM-1:IMSS; conditions: time 4 day
Entamoeba histolytica [11] = test: Induction of ROS generation in Entamoeba histolytica […] trophozoites at IC50 concentration incubated for 1 hr in presence of trolox by DCFDA staining based assay relative to control; assay type: functional, HM-1:IMSS
CHO-K1 = test: Cytotoxicity against CHO-K1 cells assessed as reduction in cell viability after 24 hrs by MTT assay; assay type: cell-based; conditions: Cricetulus griseus, CHO-K1, 24 h
Entamoeba histolytica [12] = test: Induction of ROS generation in Entamoeba histolytica […] trophozoites at IC50 concentration incubated for 1 hr by DCFDA staining based assay; assay type: functional, organism-based; conditions: HM-1:IMSS
Entamoeba histolytica [13] = test: Antimicrobial activity against Entamoeba histolytica […] trophozoites infected in Syrian hamster assessed as inhibition of amoebic liver abscess by measuring edema at 0.5 mg/kg, ip at 4 days post infection and measured on day 8 by H and E staining based microscopic method; assay type: functional, organism-based; conditions: HM-1:IMSS, time 4.0 day
Entamoeba histolytica [14] = test: Antimicrobial activity against Entamoeba histolytica […] trophozoites infected in Syrian hamster assessed as blood ureic nitrogen level at 0.05 mg/kg, ip at 4 days post infection and measured on day 8 (reference value: […]); assay type: functional, HM-1:IMSS; conditions: time 4 day
Entamoeba histolytica [15] = test: Antimicrobial activity against Entamoeba histolytica […] trophozoites infected in Syrian hamster assessed as urea level at 0.05 mg/kg, ip at 4 days post infection and measured on day 8 (reference value: 14 +/- 1 mg/dl); assay type: functional, HM-1:IMSS; conditions: time 4 day
Entamoeba histolytica [16] = test: Antimicrobial activity against Entamoeba histolytica […] trophozoites assessed as decrease in number of vacuoles at IC50 concentration after 48 hrs by uranyl acetate staining based TEM analysis; assay type: functional, organism-based; conditions: HM-1:IMSS
Entamoeba histolytica [17] = test: Antimicrobial activity against Entamoeba histolytica HM1:MMS assessed as reduction in amoeba growth; assay type: functional, organism-based; conditions: HM-1:IMSS
Entamoeba histolytica [18] = test: Induction of apoptosis in Entamoeba histolytica […] trophozoites assessed as early apoptotic cells at IC50 concentration after 48 hrs by annexin-V-FITC/propidium iodide staining based flow cytometric analysis (reference value: 0.9%); assay type: functional, HM-1:IMSS
Entamoeba histolytica [19] = test: Antimicrobial activity against Entamoeba histolytica […] trophozoites infected in Syrian hamster assessed as inhibition of amoebic liver abscess at 0.5 mg/kg, ip at 4 days post infection and measured on day 8 by NMR analysis; assay type: functional, organism-based; conditions: HM-1:IMSS, time 4.0 day
Entamoeba histolytica [20] = test: Induction of apoptosis in Entamoeba histolytica […] trophozoites assessed as viable cells at IC50 concentration after 48 hrs by annexin-V-FITC/propidium iodide staining based flow cytometric analysis (reference value: 98%); assay type: functional, HM-1:IMSS
Giardia intestinalis = test: Antigiardial activity against Giardia lamblia WB infected in ig dosed CD-1 mouse assessed as reduction in parasite growth after 8 days; assay type: functional; conditions: Giardia duodenalis, po, 192 h, time 8 day
Entamoeba histolytica [21] = test: Antimicrobial activity against Entamoeba histolytica […] trophozoites assessed as abnormal condensation of chromatin at IC50 concentration after 48 hrs by uranyl acetate staining based TEM analysis; assay type: functional, organism-based; conditions: HM-1:IMSS
Entamoeba histolytica [22] = test: Antimicrobial activity against Entamoeba histolytica […] trophozoites infected in Syrian hamster assessed as total bilirubin level at 0.05 mg/kg, ip at 4 days post infection and measured on day 8 (reference value: 0.8 +/- 0.2 mg/dl); assay type: functional, HM-1:IMSS; conditions: time 4 day
Entamoeba histolytica [23] = test: Antimicrobial activity against Entamoeba histolytica […] trophozoites infected in Syrian hamster assessed as inhibition of amoebic liver abscess by abundant monocytes at 0.5 mg/kg, ip at 4 days post infection and measured on day 8 by H and E staining based microscopic method; assay type: functional, organism-based; conditions: HM-1:IMSS, time 4.0 day
Entamoeba histolytica [24] = test: Antimicrobial activity against Entamoeba histolytica […] trophozoites assessed as decrease in granularity at IC50 concentration after 48 hrs by uranyl acetate staining based TEM analysis; assay type: functional, organism-based; conditions: HM-1:IMSS
Entamoeba histolytica [25] = test: Antimicrobial activity against Entamoeba histolytica […] trophozoites infected in Syrian hamster assessed as glucose level at 0.05 mg/kg, ip at 4 days post infection and measured on day 8 (reference value: 126 +/- 18 mg/dl); assay type: functional, HM-1:IMSS; conditions: time 4 day
Entamoeba histolytica [26] = test: Antimicrobial activity against Entamoeba histolytica […] trophozoites infected in Syrian hamster assessed as ALT level at 0.05 mg/kg, ip at 4 days post infection and measured on day 8 (reference value: 276 +/- 24 U/L); assay type: functional, HM-1:IMSS; conditions: time 4 day

Activity (Entamoeba histolytica [4]): Active
Compound: O=c1c(O)c(-c2ccc(O)cc2)oc2cc(O)cc(O)c12 [KAEMPFEROL]
Activity (Entamoeba histolytica [1]): 6.1%
Activity (Entamoeba histolytica [2]): Active
Activity (Entamoeba histolytica [3]): 19 thousand/mm3
Activity (Entamoeba histolytica [5]): 2.4%
Activity (Entamoeba histolytica [6]): 0.5 mg/dL
inhibition (Entamoeba histolytica [7]): Active
IC50 (BEAS-2B): 350 µM
Activity (Entamoeba histolytica [8]): 679 thousand/mm3
Activity (Entamoeba histolytica [9]): 348 U/L
Activity (Entamoeba histolytica [10]): 442 mg/dL
Activity (Entamoeba histolytica [11]): 33.36%
IC50 (CHO-K1): 240 µM
Activity (Entamoeba histolytica [12]): Active
inhibition (Entamoeba histolytica [13]): Active
Activity (Entamoeba histolytica [14]): 19 mg/dL
Activity (Entamoeba histolytica [15]): 42 mg/dL
Activity (Entamoeba histolytica [16]): Active
IC50 (Entamoeba histolytica [17]): 0.23 µM
Activity (Entamoeba histolytica [18]): 4.2%
inhibition (Entamoeba histolytica [19]): Active
Activity (Entamoeba histolytica [20]): 87.3%
ED50 (Giardia intestinalis): 2.06 µmol/kg
Activity (Entamoeba histolytica [21]): Active
Activity (Entamoeba histolytica [22]): 0.4 mg/dL
inhibition (Entamoeba histolytica [23]): Active
Activity (Entamoeba histolytica [24]): Active
Activity (Entamoeba histolytica [25]): 58 mg/dL
Activity (Entamoeba histolytica [26]): 55 U/L
